We go through 88 compounds from a melting point compilation (Tetko et al.; mined from patent text by program, amines drawn as free bases though some values may be those of a salt).

The melting point is the temperature, or range, at which the solid turns liquid.

As to `CN(Cc1ccccc1)c1sc(-c2ccncc2)c2c1C(=O)CC2`, the melting point is 145 to 147 °C.

With `Cc1nnc(Br)n1-c1ccc(Cl)cc1C(=O)c1ccccc1`, the melting point is 198 to 199 °C.

Compound `CC(C)C(=O)NC1CCc2c(c3cc(C(N)=O)ccc3n2Cc2cccc(F)c2)C1` (stereo not drawn) came in with a melting point of 192 to 194 °C.

`O=c1ccc(-c2c(-c3ccccc3)nn3ccccc23)nn1[C@H]1CCNC1` had a melting point of 144 to 146 °C.

The compound `COc1ccc2c(c1)C(OC)(c1ccccc1)OC21CCN(Cc2ccccc2)CC1` (stereo not drawn) registered a melting point of 129 to 133 °C.

`CC1(C)CCC(C)(C)c2cc(C(O)C3CCCCC3C(=O)O)ccc21` (stereo not drawn) showed a melting point of 186 °C.

`Cc1c(-c2ccccc2)nc2n1C(C)(C)Cc1ccccc1C2OC1CCN(C)CC1` (stereo not drawn): the melting point was determined as 152 °C.

For the compound `C(=C\c1ncc(-c2cnc(-c3ccccc3)nc2)[nH]1)/c1cccnc1`, the melting point was determined as 258 °C.

As for `CC1(C)CC(SCc2c(C(F)(F)F)nn(-c3ccccc3)c2Cl)=NO1`, the melting point lay within 89 to 90 °C.

`CCc1nn2c(-c3cccc(C(F)(F)F)c3)ccnc2c1C#N` had a melting point of 144 to 146 °C.

For the compound `O=CNC1=NN(c2ccccn2)CC1`, the melting point fell in the range of 182 to 183 °C.

Regarding `CC(=O)NNc1ccc(NC(=S)Nc2ccccc2)cc1`, the melting point was 205 to 207 °C.

With `Cc1ccc(S(=O)(=O)OCC2COc3ccc([N+](=O)[O-])c(CC=O)c3O2)cc1` (stereo not drawn), the melting point lay in the range of 116 to 120 °C.

`COc1ccc(SCCCCSc2ccc(OC)cc2)cc1`: the melting point was 102 to 103 °C.

As for `CC(=O)Oc1ccc(NC(=O)c2ccc(Sc3cc4c(cc3C)C(C)(C)CCC4(C)C)cc2)cc1`, the melting point was 186 to 187 °C.

`CC(C)CC(=O)Nc1cccc(-c2ccnc3c(Br)cnn23)c1` yielded a melting point of 132 to 134 °C.

Consider `CCCCCCCCCc1ccc(C(Sc2cccc(NC(=O)CC(=O)OC)c2)C(=O)CCCC(=O)OC)cc1` (stereo not drawn), for which the melting point was 88 to 91 °C.

The compound `CC(C)(C)[Si](C)(C)Oc1ccccc1-c1cc(-c2ccc([N+](=O)[O-])cc2)c(C#N)c(N)n1` displayed a melting point of 168 to 169 °C.

Take `OCc1ncc(O)c2c1[nH]c1ccccc12`: the melting point turned out to be 148 °C.

With `O=C1NC(C(Cl)(Cl)Cl)Oc2ccccc21` (stereo not drawn), the melting point lay in the range of 175 to 177 °C.

For the compound `Nc1nc(NC2CC2)c2ncn(/C=C3/CC3(CO)CO)c2n1`, the melting point was 164 to 165 °C.

The compound `CC(C)(C)CCNC(=O)c1ccc(CC(C)(C)C)cc1` came in with a melting point of 124 to 126 °C.

The compound `ON=C1c2ccccc2-c2c1c(N1CCN(c3ccccn3)CC1)nc1ccc(Br)cc21` displayed a melting point of 235 to 237 °C.

For `O=C(O)CCCC(Nc1ccccc1)c1ccc(Cl)cc1` (stereo not drawn), the melting point is 133 to 134 °C.

`CC(C)(C)NCC(O)COc1ccc2c(=O)cc(-c3cc(O)cc(O)c3)oc2c1` (stereo not drawn) yielded a melting point of 153 °C.

`CCCCCCC#Cc1ccc(/C=C(/C(=O)O)C(=O)OCC)o1` had a melting point of 89 to 90 °C.

As to `CCOC(=O)c1csc(C=O)n1`, the melting point lay within 65 to 67 °C.

Regarding `Oc1ccccc1Cc1ccc(Cl)nn1`, the melting point was 132 °C.

In turn, `C[C@H](N)C(=O)NC1N=C(c2ccccc2Cl)c2cc(Cl)ccc2N(C)C1=O` (stereo partly drawn) gave a melting point of 232 to 233 °C.

`CNC(=O)C(Cc1ccc(OC)cc1)NC(=O)C(CC(C)C)C(S)CC(=O)OCc1ccccc1` (stereo not drawn): the melting point was in the range of 133 to 135 °C.

`C#CCN1C(=O)C(CC#N)C(CC)(CC)N=C1c1ccccc1` (stereo not drawn): the melting point lay in the range of 178 to 180 °C.

`COC(=O)[C@@H]1CSCN1C(=O)/C=C\Sc1ccccc1` showed a melting point of 126 to 128 °C.

`O=C(Nc1ccc2ccc(Cl)nc2n1)c1cscn1` registered a melting point of 325 °C.

With `O=C(O)CCc1ccc(CCN2CCN(S(=O)(=O)c3ccccc3)CC2)cc1`, the melting point is 177 to 178 °C.

For the compound `CCCCC[C@H]1CC[C@H](/C=C/COc2ccc(C=O)cc2)CC1`, the melting point fell in the range of 54 to 55 °C.

In turn, `COc1cccc2c1OC(CO)CN2` (stereo not drawn) came in with a melting point of 108 to 110 °C.

Regarding `COc1cc(C(=O)N(C(C)C)C2CCCCC2)ccc1Oc1cc(OC)c(OC)c(OC)c1`, the melting point lay in the range of 126 to 128 °C.

As for `N#Cc1ccc(CNC(=O)c2ccc(C=O)cc2)cc1`, the melting point amounted to 170 °C.

`CC(C)c1[nH]nc(C(N)=O)c1[N+](=O)[O-]` showed a melting point of 179 to 180 °C.

For the compound `CCOC(=O)Cc1sc(SCc2cc(O)nc(O)n2)nc1C`, the melting point was in the range of 203 to 204 °C.

Take `CCCc1c(OCCCc2ccc(O)c(O)c2)ccc(C(=O)O)c1O`: the melting point is 194 to 195 °C.

`NS(=O)(=O)c1ccc(-n2nc(C(F)(F)F)cc2-c2ccc(OS(=O)(=O)C(F)(F)F)c(Cl)c2)cn1`: the melting point lay within 118 to 120 °C.

As to `CC(=O)c1c(O)cccc1OCC(O)COc1c(C)cccc1C` (stereo not drawn), the melting point was 88 to 90 °C.

Regarding `COCCn1nc2c(N)nc3ccccc3c2c1CC1CCOCC1`, the melting point is 189 to 190 °C.

`CC(CCl)OC(=O)Nc1ccc([N+](=O)[O-])cc1Cl` (stereo not drawn): the melting point was in the range of 101 to 103 °C.

`CCOC(=O)C(C)=NNc1ccc(C)cc1C` gave a melting point of 146 °C.

The compound `O=C(O)c1ccc(N(CC2CC2)c2cc3c4c(c2)CCCC4CCC3)cc1` showed a melting point of 214 to 216 °C.

The compound `NCC(=O)N[C@@H]1CN2C(=O)N(c3cc(Cl)nc(Cl)c3)C(=O)[C@@]2(Cc2ccc(OC(F)(F)F)cc2)C1` registered a melting point of 114 °C.

Turning to `NC(=O)COc1ccc(CCNS(=O)(=O)c2ccc(Cl)cc2)cc1`, the melting point is 158 to 159 °C.

In turn, `N#CCC(=O)Nc1ccc(-n2nc(C(F)(F)F)cc2C(F)(F)F)cc1` displayed a melting point of 140 to 143 °C.

With `COc1cc(C(=O)O)c(-n2c3ccccc3c3ccccc32)cc1C(=O)O`, the melting point stood at 298 °C.

Compound `COC(=O)c1ccc(OS(=O)(=O)C(F)(F)F)c(C23CC4CC(CC(C4)C2)C3)c1` returned a melting point of 95 °C.

On to `CCN1c2ncc(Br)cc2C(=O)N(C)c2ccc(F)nc21`, for which the melting point was in the range of 154 to 156 °C.

Compound `Cn1ncc(NCCN2CCC(c3noc4cc(F)ccc34)CC2)cc1=O` registered a melting point of 200 to 202 °C.

`CC(C)C(NC(=O)OCc1nccs1)C(=O)NC(Cc1ccccc1)C(O)C(Cc1ccccc1)NC(=O)C(NC(=O)OCc1nccs1)C(C)C` (stereo not drawn): the melting point lay in the range of 92 to 93 °C.

`O=C1C(Cl)=C(CC2CCCC(C(F)(F)F)C2)C(=O)c2ccccc21` (stereo not drawn) showed a melting point of 104 °C.

On to `N#CNC(=NC1CCN(Cc2ccccc2)CC1)N1Cc2ccccc2C1`, for which the melting point lay in the range of 191 to 192 °C.

Take `CCC(CC)C(=O)N1CC(NC(=O)Nc2cccc(C(=O)O)c2)C(=O)N(CC(=O)c2ccccc2C)c2cc(C)ccc21` (stereo not drawn): the melting point was in the range of 244 to 246 °C.

`Cc1nccc2c3ccc(O)cc3n(Cc3ccccc3)c12` came in with a melting point of 234 °C.

For the compound `COc1ccc(CC2SC(=O)NC2=O)cc1NC(=O)Cc1ccc(C(F)(F)F)cc1` (stereo not drawn), the melting point lay within 147 to 149 °C.

`CC(=O)N1CCN(CCc2ccc(-c3cccc(N)n3)cc2)CC1` gave a melting point of 201 to 203 °C.

`CC(C)(C)OC(=O)[C@H]1CCCN1S(=O)(=O)c1ccc2c(Br)cnc(Cl)c2c1` registered a melting point of 128 to 130 °C.

As to `COc1ccc(C(=O)Oc2c(C)c(C)c3oc(C)c(-c4ccc(C(C)C)cc4)c3c2C)cc1`, the melting point lay in the range of 113 to 115 °C.

For `O=C1Nc2ccc(NC(=O)c3cccn(-c4ccc(F)cc4)c3=O)cc2/C1=C/c1ccc[nH]1`, the melting point is over 300 °C.

In the case of `CCCc1c(O)ccc(C(=O)OCc2ccccc2)c1O`, the melting point lay in the range of 86 to 88 °C.

`NCCOc1cccc2c1CC(=O)N2` gave a melting point of 146 to 148 °C.

For the compound `Cc1nccn1CCCc1ccc(OCc2coc(/C=C/c3ccccc3)n2)cc1`, the melting point was in the range of 93 to 94 °C.

`O=C(O)CCCC1NCC2CCCN3CCCC1C23` (stereo not drawn) displayed a melting point of 185 to 187 °C.

`Cc1cc(O)ccc1-n1cc(C(=O)O)c(=O)cc1C1=CCCC1` displayed a melting point of 211 to 213 °C.

`CC(=O)Nc1cc(C(C)(C)C)ccc1N1CCOCC1` displayed a melting point of 112 to 113 °C.

In turn, `O=C1C(=O)c2ccccc2C2=C1SCC1(CCN(CC(O)COc3ccc4cc(Br)ccc4c3)CC1)O2` (stereo not drawn) displayed a melting point of 183 to 184 °C.

In turn, `CC(C)(NC(N)=O)C(=O)NCCO[N+](=O)[O-]` had a melting point of 98 to 100 °C.

`CCC(=C(c1ccccc1)c1ccc(C=Cc2noc(C)n2)cc1)c1ccccc1` registered a melting point of 158 to 159 °C.

Compound `NCc1cccc(N)c1` had a melting point of 40 to 43 °C.

For `CCOC(=O)C(=O)CC(=O)c1cn(Cc2ccccc2F)c2ccccc2c1=O`, the melting point is 152 to 153 °C.

With `COC(=O)c1c(Cc2ccc(C(=O)CO)cc2)c(=O)c2ccc(C)nc2n1-c1ccccc1`, the melting point was 190 to 193 °C.

Regarding `Cc1ccccc1-n1nccc1-c1nn(-c2cccc(C(F)(F)F)c2)ccc1=O`, the melting point lay within 126 to 127 °C.

`[O-][N+]1=C(c2ccccc2F)c2cc(Cl)ccc2NC(C(=NO)N2CCOCC2)C1` (stereo not drawn) displayed a melting point of 184 to 186 °C.

Compound `N#Cc1c(-c2ccccc2)c(-c2ccccc2)nn(CCC(=O)NCC(=O)O)c1=O` displayed a melting point of 113 to 115 °C.

In turn, `Cc1c(C)c(NC(=O)CC(C)(C)C)c2c(c1C)C(=O)C(C)(C)O2` had a melting point of 158 to 159 °C.

With `CC(C)(C)c1cc(C(C)(C)C)c(OP2OCCN2C(C)(C)C)c(C(C)(C)C)c1` (stereo not drawn), the melting point was 73 to 74 °C.

`Cc1nc(N)c2nc(C)n(CCOC/C=C/c3ccccc3)c2c1C`: the melting point was 144 to 145 °C.

With `COc1ccc(-n2nc(-c3ccc(C)cc3)c(C(N)=O)c2N)cc1`, the melting point was 174 to 175 °C.

With `O=Cc1cc(O)c(O)c([N+](=O)[O-])c1`, the melting point lay within 142 to 143 °C.

Consider `O=C(O)c1cccc(N2C(=O)c3ccc([N+](=O)[O-])cc3C2=O)c1`, for which the melting point was in the range of 368 to 370 °C.

In the case of `O=C(O)c1ccccc1Oc1ccc(C(F)(F)F)cc1NS(=O)(=O)c1ccc(C(F)(F)F)cc1`, the melting point was 175 °C.

`CCOC(=O)Cn1cnc(-c2cc(OC)c(OC)c(OC)c2)c1-c1ccc(C(F)(F)F)cc1` yielded a melting point of 129 to 134 °C.

For `CCSC(=O)Cc1cc(Oc2ccc(C(F)(F)F)cc2Cl)ccc1[N+](=O)[O-]`, the melting point fell in the range of 82.5 to 84.2 °C.
